Source: article PMC10924921, “Mi-2β promotes immune evasion in melanoma by activating EZH2 methylation” (Nature Communications, 2024)

Columns and labels:
[1] = molecular target: MKNK2 (Homo sapiens, UniProt Q9HBH9); assay: biochemical; set-up: KINOMEscan active-site competition binding panel (468 kinase assays), per cent of control at 1000 nM; details: KINOMEscan per cent of control (binding competition); read-out: Percent Control
Excerpt: (§1) Figure S7 / Percent Control

[2] = molecular target: TAOK2 (Homo sapiens, UniProt Q9UL54); assay: biochemical; set-up: KINOMEscan active-site competition binding panel (468 kinase assays), per cent of control at 1000 nM; details: KINOMEscan per cent of control (binding competition); read-out: Percent Control
Excerpt: as §1

[3] = molecular target: ULK3 (Homo sapiens, UniProt Q6PHR2); assay: biochemical; set-up: KINOMEscan active-site competition binding panel (468 kinase assays), per cent of control at 1000 nM; details: KINOMEscan per cent of control (binding competition); read-out: Percent Control
Sequence of ULK3 (Q6PHR2 whole entry): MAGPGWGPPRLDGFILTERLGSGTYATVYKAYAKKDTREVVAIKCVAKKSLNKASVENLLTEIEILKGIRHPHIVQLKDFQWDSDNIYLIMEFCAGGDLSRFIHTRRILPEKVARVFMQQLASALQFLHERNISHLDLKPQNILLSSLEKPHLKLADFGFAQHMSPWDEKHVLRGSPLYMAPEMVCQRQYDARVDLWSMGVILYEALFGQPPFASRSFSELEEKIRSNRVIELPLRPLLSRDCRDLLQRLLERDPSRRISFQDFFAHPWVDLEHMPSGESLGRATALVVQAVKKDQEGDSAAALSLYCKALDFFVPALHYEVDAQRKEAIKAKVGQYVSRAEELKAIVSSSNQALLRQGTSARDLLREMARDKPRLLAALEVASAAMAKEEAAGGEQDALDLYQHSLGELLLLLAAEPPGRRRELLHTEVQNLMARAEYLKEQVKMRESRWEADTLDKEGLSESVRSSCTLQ
Excerpt: as §1

[4] = molecular target: EPHA1 (Homo sapiens, UniProt P21709); assay: biochemical; set-up: KINOMEscan active-site competition binding panel (468 kinase assays), per cent of control at 1000 nM; details: KINOMEscan per cent of control (binding competition); read-out: Percent Control
Excerpt: as §1

[5] = molecular target: LCK (Homo sapiens, UniProt P06239); assay: biochemical; set-up: KINOMEscan active-site competition binding panel (468 kinase assays), per cent of control at 1000 nM; details: KINOMEscan per cent of control (binding competition); read-out: Percent Control
Sequence of LCK (P06239 whole entry): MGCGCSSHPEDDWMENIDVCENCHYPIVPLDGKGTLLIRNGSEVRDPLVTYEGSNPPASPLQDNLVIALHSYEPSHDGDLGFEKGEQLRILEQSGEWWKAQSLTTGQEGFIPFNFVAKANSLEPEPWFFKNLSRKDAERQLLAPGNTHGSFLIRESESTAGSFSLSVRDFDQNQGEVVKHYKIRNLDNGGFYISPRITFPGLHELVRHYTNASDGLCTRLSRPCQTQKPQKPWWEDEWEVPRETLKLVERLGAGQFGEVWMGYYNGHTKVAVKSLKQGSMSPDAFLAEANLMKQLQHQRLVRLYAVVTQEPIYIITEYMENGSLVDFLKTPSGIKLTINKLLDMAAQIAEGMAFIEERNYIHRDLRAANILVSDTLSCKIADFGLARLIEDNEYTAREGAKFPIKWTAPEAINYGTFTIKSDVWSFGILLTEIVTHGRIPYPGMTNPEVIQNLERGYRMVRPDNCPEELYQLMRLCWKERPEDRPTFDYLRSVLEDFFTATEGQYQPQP
Excerpt: as §1

[6] = molecular target: KIT (Homo sapiens, UniProt P10721); assay: biochemical; set-up: KINOMEscan active-site competition binding panel (468 kinase assays), per cent of control at 1000 nM; details: KINOMEscan per cent of control (binding competition); read-out: Percent Control
Sequence of KIT (P10721 whole entry): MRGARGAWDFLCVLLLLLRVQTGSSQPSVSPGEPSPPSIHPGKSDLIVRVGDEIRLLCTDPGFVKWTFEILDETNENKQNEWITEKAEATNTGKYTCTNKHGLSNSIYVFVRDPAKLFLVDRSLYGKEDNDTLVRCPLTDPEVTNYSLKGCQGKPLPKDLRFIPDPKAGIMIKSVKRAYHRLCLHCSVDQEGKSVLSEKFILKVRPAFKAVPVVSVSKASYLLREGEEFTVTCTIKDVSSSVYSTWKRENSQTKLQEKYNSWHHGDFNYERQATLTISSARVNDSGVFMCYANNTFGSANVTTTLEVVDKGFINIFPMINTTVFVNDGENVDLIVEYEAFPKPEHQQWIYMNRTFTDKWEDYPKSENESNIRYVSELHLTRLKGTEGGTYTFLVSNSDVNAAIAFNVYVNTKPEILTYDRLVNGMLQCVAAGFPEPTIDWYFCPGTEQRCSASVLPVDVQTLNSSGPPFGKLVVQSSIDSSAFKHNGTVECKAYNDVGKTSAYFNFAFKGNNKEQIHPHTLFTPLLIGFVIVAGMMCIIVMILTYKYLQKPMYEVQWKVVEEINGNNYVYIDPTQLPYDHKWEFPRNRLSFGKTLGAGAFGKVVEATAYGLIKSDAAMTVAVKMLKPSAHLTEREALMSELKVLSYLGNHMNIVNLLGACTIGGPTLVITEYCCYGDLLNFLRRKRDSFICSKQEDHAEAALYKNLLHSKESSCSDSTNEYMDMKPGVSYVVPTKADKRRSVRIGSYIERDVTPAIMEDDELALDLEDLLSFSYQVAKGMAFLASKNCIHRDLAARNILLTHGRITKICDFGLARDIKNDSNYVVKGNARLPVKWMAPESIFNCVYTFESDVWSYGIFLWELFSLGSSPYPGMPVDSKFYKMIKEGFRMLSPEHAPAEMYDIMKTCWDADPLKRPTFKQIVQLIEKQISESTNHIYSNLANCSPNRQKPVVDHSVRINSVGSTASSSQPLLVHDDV
Excerpt: as §1

[7] = molecular target: T1, CDK4-cyclinD1 (Homo sapiens, UniProt P11802); assay: biochemical; set-up: KINOMEscan active-site competition binding panel (468 kinase assays), per cent of control at 1000 nM; details: KINOMEscan per cent of control (binding competition); read-out: Percent Control
T1 construct: cyclinD1
Excerpt: as §1

[8] = molecular target: MTOR (Homo sapiens, UniProt P42345); assay: biochemical; set-up: KINOMEscan active-site competition binding panel (468 kinase assays), per cent of control at 1000 nM; details: KINOMEscan per cent of control (binding competition); read-out: Percent Control
Excerpt: as §1

[9] = molecular target: T2, DCAMKL3 (Homo sapiens, UniProt Q9C098); assay: biochemical; set-up: KINOMEscan active-site competition binding panel (468 kinase assays), per cent of control at 1000 nM; details: KINOMEscan per cent of control (binding competition); read-out: Percent Control
T2 construct: gene DCLK3
T2 sequence (Q9C098 whole entry): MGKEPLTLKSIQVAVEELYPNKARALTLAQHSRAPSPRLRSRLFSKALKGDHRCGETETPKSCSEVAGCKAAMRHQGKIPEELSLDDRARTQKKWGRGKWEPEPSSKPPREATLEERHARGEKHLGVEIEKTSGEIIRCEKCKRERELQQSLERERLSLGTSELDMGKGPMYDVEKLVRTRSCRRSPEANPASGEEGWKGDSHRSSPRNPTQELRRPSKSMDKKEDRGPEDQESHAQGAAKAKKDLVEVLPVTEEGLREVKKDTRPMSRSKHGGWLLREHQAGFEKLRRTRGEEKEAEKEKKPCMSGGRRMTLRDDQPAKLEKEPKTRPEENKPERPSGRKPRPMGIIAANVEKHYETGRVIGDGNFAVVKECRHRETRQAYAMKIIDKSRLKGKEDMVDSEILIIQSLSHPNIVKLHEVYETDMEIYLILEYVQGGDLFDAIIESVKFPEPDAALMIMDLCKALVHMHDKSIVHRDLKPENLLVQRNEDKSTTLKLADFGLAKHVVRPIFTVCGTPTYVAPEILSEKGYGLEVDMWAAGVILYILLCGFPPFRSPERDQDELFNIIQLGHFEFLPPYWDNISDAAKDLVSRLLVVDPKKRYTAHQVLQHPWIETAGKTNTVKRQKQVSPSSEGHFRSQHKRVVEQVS
Excerpt: as §1

[10] = molecular target: T3, ERK3 (Homo sapiens, UniProt Q16659); assay: biochemical; set-up: KINOMEscan active-site competition binding panel (468 kinase assays), per cent of control at 1000 nM; details: KINOMEscan per cent of control (binding competition); read-out: Percent Control
T3 construct: gene MAPK6
Excerpt: as §1

[11] = molecular target: MARK2 (Homo sapiens, UniProt Q7KZI7); assay: biochemical; set-up: KINOMEscan active-site competition binding panel (468 kinase assays), per cent of control at 1000 nM; details: KINOMEscan per cent of control (binding competition); read-out: Percent Control
Sequence of MARK2 (Q7KZI7 whole entry): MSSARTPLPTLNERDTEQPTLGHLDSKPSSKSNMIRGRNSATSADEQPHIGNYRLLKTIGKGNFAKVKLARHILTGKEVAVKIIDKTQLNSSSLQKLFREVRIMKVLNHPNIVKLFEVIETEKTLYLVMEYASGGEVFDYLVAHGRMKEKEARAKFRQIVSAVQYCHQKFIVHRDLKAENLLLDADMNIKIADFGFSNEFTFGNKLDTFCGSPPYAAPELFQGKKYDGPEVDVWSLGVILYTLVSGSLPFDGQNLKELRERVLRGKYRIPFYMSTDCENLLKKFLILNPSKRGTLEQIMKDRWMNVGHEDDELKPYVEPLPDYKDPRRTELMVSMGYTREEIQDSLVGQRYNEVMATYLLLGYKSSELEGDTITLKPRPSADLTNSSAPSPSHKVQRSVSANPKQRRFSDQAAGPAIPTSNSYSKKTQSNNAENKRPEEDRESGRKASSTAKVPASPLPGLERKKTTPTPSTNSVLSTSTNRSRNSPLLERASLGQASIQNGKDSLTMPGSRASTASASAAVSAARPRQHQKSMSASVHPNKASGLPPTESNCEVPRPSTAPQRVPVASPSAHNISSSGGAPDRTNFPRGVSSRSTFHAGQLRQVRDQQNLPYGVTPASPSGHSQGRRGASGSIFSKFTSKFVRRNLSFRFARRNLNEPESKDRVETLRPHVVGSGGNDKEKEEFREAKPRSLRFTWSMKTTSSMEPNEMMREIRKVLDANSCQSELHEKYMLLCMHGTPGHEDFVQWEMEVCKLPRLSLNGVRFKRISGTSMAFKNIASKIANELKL
Excerpt: as §1

[12] = molecular target: FGFR4 (Homo sapiens, UniProt P22455); assay: biochemical; set-up: KINOMEscan active-site competition binding panel (468 kinase assays), per cent of control at 1000 nM; details: KINOMEscan per cent of control (binding competition); read-out: Percent Control
Excerpt: as §1

[13] = molecular target: T4, CAMK1B (Homo sapiens, UniProt Q6P2M8); assay: biochemical; set-up: KINOMEscan active-site competition binding panel (468 kinase assays), per cent of control at 1000 nM; details: KINOMEscan per cent of control (binding competition); read-out: Percent Control
T4 construct: gene PNCK
Excerpt: as §1

[14] = molecular target: MAP4K5 (Homo sapiens, UniProt Q9Y4K4); assay: biochemical; set-up: KINOMEscan active-site competition binding panel (468 kinase assays), per cent of control at 1000 nM; details: KINOMEscan per cent of control (binding competition); read-out: Percent Control
Excerpt: as §1

[15] = molecular target: PLK2 (Homo sapiens, UniProt Q9NYY3); assay: biochemical; set-up: KINOMEscan active-site competition binding panel (468 kinase assays), per cent of control at 1000 nM; details: KINOMEscan per cent of control (binding competition); read-out: Percent Control
Excerpt: as §1

[16] = molecular target: EPHA7 (Homo sapiens, UniProt Q15375); assay: biochemical; set-up: KINOMEscan active-site competition binding panel (468 kinase assays), per cent of control at 1000 nM; details: KINOMEscan per cent of control (binding competition); read-out: Percent Control
Excerpt: as §1

[17] = molecular target: RET(V804L) (Homo sapiens, UniProt P07949, V804L); assay: biochemical; set-up: KINOMEscan active-site competition binding panel (468 kinase assays), per cent of control at 1000 nM; details: KINOMEscan per cent of control (binding competition); read-out: Percent Control
Excerpt: as §1

[18] = molecular target: T5, JAK3(JH1domain-catalytic) (Homo sapiens, UniProt P52333); assay: biochemical; set-up: KINOMEscan active-site competition binding panel (468 kinase assays), per cent of control at 1000 nM; details: KINOMEscan per cent of control (binding competition); read-out: Percent Control
T5 construct: JH1domain-catalytic
Excerpt: as §1

[19] = molecular target: ACVR2B (Homo sapiens, UniProt Q13705); assay: biochemical; set-up: KINOMEscan active-site competition binding panel (468 kinase assays), per cent of control at 1000 nM; details: KINOMEscan per cent of control (binding competition); read-out: Percent Control
Sequence of ACVR2B (Q13705 whole entry): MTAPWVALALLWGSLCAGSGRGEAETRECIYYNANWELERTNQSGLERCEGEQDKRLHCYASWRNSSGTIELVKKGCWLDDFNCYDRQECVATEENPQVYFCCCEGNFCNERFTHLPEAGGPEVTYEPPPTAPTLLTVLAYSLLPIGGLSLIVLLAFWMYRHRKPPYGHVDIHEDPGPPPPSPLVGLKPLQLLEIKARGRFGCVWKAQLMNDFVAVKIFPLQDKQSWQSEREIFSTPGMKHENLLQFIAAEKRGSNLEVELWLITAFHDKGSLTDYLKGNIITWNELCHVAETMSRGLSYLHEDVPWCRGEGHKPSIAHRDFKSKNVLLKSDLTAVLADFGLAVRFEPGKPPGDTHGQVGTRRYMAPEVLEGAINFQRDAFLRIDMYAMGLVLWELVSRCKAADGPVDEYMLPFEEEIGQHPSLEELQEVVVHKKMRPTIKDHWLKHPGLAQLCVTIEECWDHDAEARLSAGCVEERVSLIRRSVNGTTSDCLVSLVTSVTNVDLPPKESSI
Excerpt: as §1

[20] = molecular target: T6, ABL1(F317L)-nonphosphorylated (Homo sapiens, UniProt P00519, F317L); assay: biochemical; set-up: KINOMEscan active-site competition binding panel (468 kinase assays), per cent of control at 1000 nM; details: KINOMEscan per cent of control (binding competition); read-out: Percent Control
T6 construct: nonphosphorylated
T6 sequence (P00519 whole entry F317L): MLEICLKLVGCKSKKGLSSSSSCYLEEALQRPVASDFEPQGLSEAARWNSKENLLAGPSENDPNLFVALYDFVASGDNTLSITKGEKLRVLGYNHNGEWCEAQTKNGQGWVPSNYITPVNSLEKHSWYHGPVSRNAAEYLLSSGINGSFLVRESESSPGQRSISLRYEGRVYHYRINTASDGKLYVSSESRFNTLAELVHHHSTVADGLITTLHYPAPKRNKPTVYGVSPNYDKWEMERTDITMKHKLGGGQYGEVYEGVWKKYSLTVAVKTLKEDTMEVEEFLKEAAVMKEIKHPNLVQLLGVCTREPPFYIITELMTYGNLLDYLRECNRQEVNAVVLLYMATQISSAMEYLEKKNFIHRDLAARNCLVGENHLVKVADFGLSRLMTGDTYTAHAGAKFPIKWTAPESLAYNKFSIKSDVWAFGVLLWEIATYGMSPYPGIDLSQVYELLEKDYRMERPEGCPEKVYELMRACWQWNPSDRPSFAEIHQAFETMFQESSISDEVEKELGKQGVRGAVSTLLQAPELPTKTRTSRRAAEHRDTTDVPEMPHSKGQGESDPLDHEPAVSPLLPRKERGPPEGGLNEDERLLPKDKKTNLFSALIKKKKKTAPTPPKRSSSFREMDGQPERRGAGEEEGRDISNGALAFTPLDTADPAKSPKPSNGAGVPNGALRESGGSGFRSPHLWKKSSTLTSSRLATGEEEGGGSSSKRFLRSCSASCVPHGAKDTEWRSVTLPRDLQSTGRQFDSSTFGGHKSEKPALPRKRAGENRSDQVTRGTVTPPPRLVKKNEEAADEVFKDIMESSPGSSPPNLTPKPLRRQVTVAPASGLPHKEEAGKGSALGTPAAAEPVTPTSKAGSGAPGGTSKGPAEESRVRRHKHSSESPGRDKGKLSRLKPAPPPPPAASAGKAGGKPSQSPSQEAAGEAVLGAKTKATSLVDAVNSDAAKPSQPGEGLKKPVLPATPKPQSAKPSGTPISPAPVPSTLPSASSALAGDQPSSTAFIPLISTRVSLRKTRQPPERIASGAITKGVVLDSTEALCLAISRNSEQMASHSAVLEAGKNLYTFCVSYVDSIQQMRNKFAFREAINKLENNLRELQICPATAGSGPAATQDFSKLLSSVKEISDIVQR
Excerpt: as §1

[21] = Pharmacokinetics in rats; format: in vivo; details: Sprague-Dawley, rat, serum, ip, intraperitoneal 1.0 mg/kg, male SD rats
Method: Compound Z36-MP5 was evaluated in a pharmacokinetic study in male Sprague-Dawley (SD) rats following intraperitoneal injection of Z36-MP5 at 1.0 mg/kg as a solution in 5% DMSO, 30% PEG400, and 65% corn oil. Blood was collected at 0.25, 0.5, 1, 2, 4, 8, and 24 h following intraperitoneal injection. The blood samples were placed in wet ice, and serum was collected after centrifugation. Serum samples were frozen and stored at −80 °C. The serum samples were analyzed utilizing HPLC-coupled tandem mass spectrometry. Values are calculated from arithmetic mean plasma concentrations (n = 3 rats per condition). Rats experiments were done according to protocols approved by the ethics committee review board of University of Arkansas for Medical Science and in accordance with the guidelines set forth by the US National Institutes of Health.

[22] = test system: B16F10 cell graft; assay: Antibody-mediated CD8 T-cell depletion and Z36-MP5 treatment; format: in vivo, mouse; details: Z36-MP5 30 mg/kg, 200 µg anti-CD8

Cn1c(=O)[nH]c2ccc(-c3cccc(C(=O)NC4CCn5ccnc5C4)c3)cc21 (centres unmarked) [Z36-MP5]
remaining binding at 1 µM [1]: 82% | remaining binding at 1 µM [2]: 87% | remaining binding at 1 µM [3]: 71% | remaining binding at 1 µM [4]: 96% | remaining binding at 1 µM [5]: 49% | remaining binding at 1 µM [6]: 95% | remaining binding at 1 µM [7]: 67% | remaining binding at 1 µM [8]: 87% | remaining binding at 1 µM [9]: 92% | remaining binding at 1 µM [10]: 90% | remaining binding at 1 µM [11]: 100% | remaining binding at 1 µM [12]: 76% | remaining binding at 1 µM [13]: 59% | remaining binding at 1 µM [14]: 39% | remaining binding at 1 µM [15]: 55% | remaining binding at 1 µM [16]: 93% | remaining binding at 1 µM [17]: 75% | remaining binding at 1 µM [18]: 70% | remaining binding at 1 µM [19]: 91% | remaining binding at 1 µM [20]: 82% | Cmax [21]: 3960 ng/mL | half-life ([21]; read-out: half-life T1/2 (converted)): 27 min | effectiveness after neutralization of CD8 T cells [22]: completely abolished the effectiveness
